Results: patent US20250230193A1, “CYCLIC COMPOUND HAVING SELECTIVE KRAS INHIBITORY EFFECT ON HRAS AND NRAS” (CHUGAI SEIYAKU KABUSHIKI KAISHA, priority 2022, published 2025)
Where a SMILES comes first, the peptide text is derived from it. Bridges are numbered along the chain shown (N, C = ends). [ ]: non-standard residue; d: D form. The star is where a group is joined. hPhe(3-Cl-4-CF3) = N[C@@H](CCc1ccc(C(F)(F)F)c(Cl)c1)C(=O)O; NPrPhe(4-CF3) = CCCN[C@@H](Cc1ccc(C(F)(F)F)cc1)C(=O)O; NMeGly(cPent) = CN[C@H](C(=O)O)C1CCCC1; Piperidide(4-Me) = CC1CCN(*)CC1; NMeD = CN[C@@H](CC(=O)O)C(=O)O; NMeL = CN[C@@H](CC(C)C)C(=O)O; Morpholide = C1CN(*)CCO1; Ac5c = NC1(C(=O)O)CCCC1; Sar = CNCC(=O)O

Legend:
[1] = target: GDP-bound NRAS wild-type protein (Homo sapiens, UniProt P01111); assay: Binding to NRAS by surface plasmon resonance (SPR), Single Cycle Kinetics
Chain of GDP-bound NRAS wild-type protein (P01111 whole entry): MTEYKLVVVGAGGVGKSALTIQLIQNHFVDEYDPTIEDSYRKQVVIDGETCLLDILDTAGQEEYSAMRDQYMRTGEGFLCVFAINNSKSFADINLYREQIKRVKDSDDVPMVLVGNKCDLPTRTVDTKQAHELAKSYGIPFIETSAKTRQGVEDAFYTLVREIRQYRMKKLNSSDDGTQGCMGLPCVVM

[2] = target: GDP-bound HRAS wild-type protein (Homo sapiens, UniProt P01112); assay: Binding to HRAS by surface plasmon resonance (SPR), Single Cycle Kinetics
Chain of GDP-bound HRAS wild-type protein (P01112 whole entry): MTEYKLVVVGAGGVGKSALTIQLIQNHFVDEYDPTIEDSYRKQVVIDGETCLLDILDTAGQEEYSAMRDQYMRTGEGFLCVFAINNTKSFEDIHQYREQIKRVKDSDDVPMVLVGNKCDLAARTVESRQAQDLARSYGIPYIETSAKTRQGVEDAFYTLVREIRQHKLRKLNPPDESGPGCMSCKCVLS

[3] = SPR, GDP-bound NRAS wild-type vs GDP-bound KRAS wild-type
[4] = SPR, GDP-bound HRAS wild-type vs GDP-bound KRAS wild-type

With CCCOC[C@H]1C(=O)N[C@@H]([C@@H](C)CC)C(=O)N(C)CC(=O)N(C)[C@H]2C/C=C\CCN(C2=O)[C@@H](CC2CCC(F)(F)CC2)C(=O)N(C)CC(=O)N[C@@H](CCc2ccc(C(F)(F)F)c(OC)c2)C(=O)N2C[C@H](OCC)C[C@H]2C(=O)NC2(CC(C)(C)C2)C(=O)N(C)[C@@H](C(CC)CC)C(=O)N(C)[C@H](C(=O)N(C)C)CC(=O)N1C [PP2464] the “NRAS/KRAS (ratio of KD value with respect to NRAS to KD value with respect to KRAS)” value [1, 3] was “A (a compound having 10 or more and less than 20 is denoted as A)” and the “HRAS/KRAS (ratio of KD value with respect to HRAS to KD value with respect to KRAS)” value [2, 4] was “A (a compound having 10 or more and less than 20 is denoted as A)”.
With CCCN1C(=O)CN(C)C(=O)CNC(=O)[C@H]([C@@H](C)CC)NC(=O)[C@H](CC(C)C)N(C)C(=O)C[C@@H](C(=O)N2CCOCC2)NC(=O)[C@H](C2CCCC2)N(C)C(=O)C2(CCCC2)NC(=O)[C@@H]2CCCN2C(=O)[C@H](CCc2ccc(C(F)(F)F)c(Cl)c2)NC(=O)CN(C)C(=O)[C@@H]1Cc1ccc(C(F)(F)F)cc1 [PP0325] ([NMeL]IG[Sar][NPrPhe(4-CF3)][Sar][hPhe(3-Cl-4-CF3)]P[Ac5c][NMeGly(cPent)]D-Morpholide; lactam N-11) the “NRAS/KRAS (ratio of KD for GDP-bound NRAS wild-type to KD for KRAS)” value ([1]; SPR) was “B (a compound having 3 or more and less than 10 is denoted as B)” and the “HRAS/KRAS (ratio of KD for GDP-bound HRAS wild-type to KD for KRAS)” value ([2]; SPR) was “B (a compound having 3 or more and less than 10 is denoted as B)”.
CCCN1C(=O)CN(C)C(=O)CN(C)C(=O)[C@H]([C@@H](C)CC)NC(=O)[C@H](CC(C)C)N(C)C(=O)C[C@@H](C(=O)N2CCC(C)CC2)N(C)C(=O)[C@H](C2CCCC2)N(C)C(=O)C2(CCCC2)NC(=O)[C@@H]2CCCN2C(=O)[C@H](CCc2ccc(C(F)(F)F)c(Cl)c2)NC(=O)CN(C)C(=O)[C@@H]1Cc1ccc(C(F)(F)F)cc1 [PP0176] ([NMeL]I[Sar][Sar][NPrPhe(4-CF3)][Sar][hPhe(3-Cl-4-CF3)]P[Ac5c][NMeGly(cPent)][NMeD]-{Piperidide(4-Me)}; lactam N-11) was tested, and the “NRAS/KRAS (ratio of KD for GDP-bound NRAS wild-type to KD for KRAS)” value ([1]; SPR) was “B (a compound having 3 or more and less than 10 is denoted as B)” and the “HRAS/KRAS (ratio of KD for GDP-bound HRAS wild-type to KD for KRAS)” value ([2]; SPR) was “C (A compound having a KD ratio of 0.1 or more and less than 3 is denoted as C)”.
CC[C@H](C)[C@@H]1NC(=O)[C@H](C)N(C)C(=O)C[C@@H](C(=O)N(C)C)N(C)C(=O)[C@H](C2CCCC2)N(C)C(=O)C2(CCCC2)NC(=O)[C@@H]2CC(F)(F)CN2C(=O)[C@H](CCc2cc(F)c(C(F)(F)F)c(F)c2)NC(=O)CN(C)C(=O)[C@H](Cc2ccc(C(F)(F)F)cc2)N2CCCCC[C@@H](C2=O)N(C)C(=O)CN(C)C1=O [PP0472] was tested, and the “NRAS/KRAS (ratio of KD value with respect to GDP-bound NRAS wild-type protein to KD value with respect to KRAS)” value ([1]; SPR) was “B (a compound having 3 or more and less than 10 is denoted as B)” and the “HRAS/KRAS (ratio of KD value with respect to GDP-bound HRAS wild-type protein to KD value with respect to KRAS)” value ([2]; SPR) was “B (a compound having 3 or more and less than 10 is denoted as B)”.
For CC[C@H](C)[C@@H]1NC(=O)[C@H](COC)N(C)C(=O)C[C@@H](C(=O)N2CCCCC2)N(C)C(=O)[C@H](C2CCCC2)N(C)C(=O)C2(CC(C)(C)C2)NC(=O)[C@@H]2C[C@@H](OC3CCCC3)CN2C(=O)[C@H](CCc2cc(F)c(C(F)(F)F)c(F)c2)NC(=O)CN(C)C(=O)[C@H](Cc2ccc(C(F)(F)F)cc2)N2CC/C=C\C[C@@H](C2=O)N(C)C(=O)CN(C)C1=O [PP2665], the “NRAS/KRAS (ratio of KD value with respect to GDP-bound NRAS wild-type protein to KD value with respect to KRAS)” value ([1]; class symbols) was “A (a compound having 10 or more and less than 20 is denoted as A)” and the “HRAS/KRAS (ratio of KD value with respect to GDP-bound HRAS wild-type protein to KD value with respect to KRAS)” value ([2]; class symbols) was “A (a compound having 10 or more and less than 20 is denoted as A)”.
For CCCN1C(=O)CN(C)C(=O)[C@H](C)NC(=O)[C@H]([C@@H](C)CC)NC(=O)[C@H](CC(C)C)N(C)C(=O)C[C@@H](C(=O)N2CCOCC2)N(C)C(=O)[C@H](C2CCCC2)N(C)C(=O)C2(CCCC2)NC(=O)[C@@H]2CCCN2C(=O)[C@H](CCc2ccc(C(F)(F)F)c(Cl)c2)NC(=O)CN(C)C(=O)[C@@H]1Cc1ccc(C(F)(F)F)cc1 [PP1971] ([NMeL]IA[Sar][NPrPhe(4-CF3)][Sar][hPhe(3-Cl-4-CF3)]P[Ac5c][NMeGly(cPent)][NMeD]-Morpholide; lactam N-11), the “NRAS/KRAS (ratio of KD value for NRAS to KD value for KRAS)” value ([1]; KD ratio, GDP-bound NRAS wild-type vs GDP-bound KRAS wild-type, SPR) was “B (a compound having 3 or more and less than 10 is denoted as B)” and the “HRAS/KRAS (ratio of KD value for HRAS to KD value for KRAS)” value ([2]; KD ratio, GDP-bound HRAS wild-type vs GDP-bound KRAS wild-type, SPR) was “B (a compound having 3 or more and less than 10 is denoted as B)”.
In the case of CCC[C@H]1C(=O)N[C@@H]([C@@H](C)CC)C(=O)N2CCC[C@H]2C(=O)N(C)[C@H]2C/C=C\CCN(C2=O)[C@@H](CC2CCCCC2)C(=O)N(C)CC(=O)N[C@@H](CCc2ccc(C(F)(F)F)c(OC)c2)C(=O)N2C[C@@H](C)C[C@H]2C(=O)N(C)C2(CCC2)C(=O)N(C)[C@@H](C2CCCC2)C(=O)N(C)[C@H](C(=O)N(C)C)CC(=O)N1C [PP2374], the “NRAS/KRAS (ratio of KD value with respect to NRAS to KD value with respect to KRAS)” value [1, 3] was “A (a compound having 10 or more and less than 20 is denoted as A)” and the “HRAS/KRAS (ratio of KD value with respect to HRAS to KD value with respect to KRAS)” value [2, 4] was “A (a compound having 10 or more and less than 20 is denoted as A)”.
